Results published in US8981053B2, “Molecules specifically binding pancreatic beta cells biomarkers” (Universite de Mons, priority 2011, dated 2015).
Where no end group is shown, it is not given here.

Legend:
[1] = molecular target: T1, FXYD2-gamma-a regulatory subunit expressed by CAPAN-2 cells (Homo sapiens, UniProt P54710); assay: Immunocytochemistry on CAPAN2 and PANC1 cells; assay type: cell-based; settings: CAPAN2 cells versus PANC1 cells
T1 construct: the FXYD2-gamma-a regulatory subunit expressed by CAPAN-2 cells; endogenous in cells; host or cells: CAPAN-2 cells (PANC1 cells as comparison)
Method: (§1) The specificity of P88, P89, P90 and a polyclonal antibody against the N-terminal sequence of FXYD2-gamma-a protein to the FXYD2-gamma-a regulatory subunit expressed by CAPAN-2 cells was checked by immunocytochemistry and immunofluorescence tests.
Immunocytochemistry tests were performed using the biotinylated peptides. An anti-biotine antibody was used and was recognized by a secondary antibody coupled to the peroxidase. The polyclonal antibody against the N-terminal sequence of FXYD2-gamma-a protein to the FXYD2-gamma-a was detected using a secondary biotinylated antibody that fixes a complex containing streptavidin, biotin and peroxidase. The latter gives a brown color in the presence of 3,3′-diaminobenzidine (DAB).

[2] = molecular target: T1, FXYD2-gamma-a regulatory subunit expressed by CAPAN-2 cells; assay: Immunofluorescence on CAPAN2 and PANC1 cells with ImageJ semi-quantitative analysis (RRFL); assay type: cell-based
Description: as §1
Each secondary antibody described above was coupled to a fluorophore such as fluorescein which gives a green color at a certain wavelength. DAPI (4′,6-diamidino-2-phenylindole) was also used in order to stain the cell nuclei in blue. This allowed us to compare the localization of the blue and the green coloration. […] Therefore, P88 interacts specifically with CAPAN2 cells and is thus specific to the FXYD2-gamma-a biomarker.
The images obtained by immunofluorescence test were analyzed using ImageJ software in order to semi-quantitatively evaluate the fluorescent labeling. The following equation was used to calculate the relative rate of fluorescent labeling (RRFL): RRFL=(SIsample/Ncells)/(SIblanc/Ncells) Wherein SI is the signal intensity, N is the number of cells and blanc is the negative control sample.
The percentage of RRFL obtained when P88 was used at two different concentrations (5 μM and 10 μM) was determined compared to the RRFL obtained when the polyclonal antibody against the N-terminal sequence of FXYD2-gamma-a was used (FIG. 3 B). The ratio between the RRFL measured in CAPAN2 cells and the RRFL measured in PANC1 cells was also determined (FIG. 3 C). […] The ratio CAPAN2/PANC1 confirmed the labeling specificity of P88 compared to the used polyclonal antibody.

[3] = system: human pancreatic beta cells; assay: Immunofluorescence co-localization on human pancreatic histological sections; assay type: cell-based
Method: (§2) A co-localization of peptide P88, insulin and glucagon was performed on human pancreatic histological sections using immunohistochemistry and immunofluorescence tests. Insulin is a hormone produced by the beta cells of Langerhans islets while glucagon is produced by the alpha cells of the same islets.
Immunofluorescence tests were performed on human pancreatic histological sections such as P88 was detected together with insulin or glucagon. In another test, insulin was detected together with the polyclonal antibody against the N-terminal sequence of FXYD2-gamma-a. Insulin (specific of beta cells) was detected with a primary anti-insulin antibody which was detected using a secondary antibody coupled to Texas Red. Glucagon was detected with a primary anti-glucagon antibody which was also detected using a secondary antibody coupled to Texas Red. The latter gives red color to the antigenic sites. Biotinylated P88 was detected using a primary antibody anti-biotin and a secondary antibody coupled to fluorescein. The polyclonal antibody against the N-terminal sequence of FXYD2-gamma-a was also detected using a secondary antibody coupled to fluorescein. Antigenic sites marked by fluorescein are visualized in green color. DAPI was also used in order to stain the cells nuclei in blue. Pictures obtained with each staining (red, green and blue) were superimposed.

[4] = molecular target: FXYD2-gamma-a subunit (Homo sapiens, UniProt P54710); assay: Dissociation constant (Kd) determination of phage display clone and synthetized peptides; settings: binding to FXYD2-gamma-a subunit
Description: Commercially available peptide libraries were screened and peptides binding the FXYD2-gamma-a subunit were retained for further analysis. The FXYD2-gamma-a is a regulating subunit of the Na—K-ATPase that contains 66 amino acids, from which 11 are specific to human beta-cells (Flamez D et al. DOI 10.1007/s00125-010-1714-z). Commercially available linear heptapeptide libraries were screened via M 13 phage display methodology. After 4 screening rounds, 42 clones were selected for further characterization: sequencing and dissociation constant (Kd) determination. […] The latter were synthetized either separately (called P89 and P90) or fused via a short sequence of the pill protein (called P88). All three synthetized peptides were further tested. […]

[5] = system: human pancreatic Langerhans islets; assay: Immunohistochemistry on human pancreatic histological sections; assay type: cell-based
Method: as §2
The marking is the same as the one obtained when the antibody anti-insulin was used (FIG. 4).
In other immunohistochemistry tests, the anti-FXYD2-gamma-a polyclonal antibody was used. […] Therefore, P88 is highly specific to the pancreatic beta cells FXYD2-gamma-a biomarker.

[6] = system: beta cells of Langerhans islets; assay: Co-localization of contrast agent labeled Langerhans islets with insulin (anti-PEG antibody); assay type: cell-based, human; settings: fluorescein, insulin Texas red
Method: Co-localization tests were performed where antibodies anti-PEG were added to the Langrehans islets labeled with USPIO-P88 nanoparticles, the Langrehans islets labeled with carboxy silane coated iron oxide nanoparticles coupled to the peptide P88 and to the Langrehans islets labeled with USPIO-PEG. A secondary antibody that recognizes the anti-PEG antibody and coupled to the fluorescein was also used which created a green fluorescence.
Insulin was labeled with primary anti-insulin antibody and a secondary antibody coupled to Texas red which created a red fluorescence.

[7] = system: CAPAN2 cells; assay: Iron dosage of CAPAN2 cells labeled with contrast agents; assay type: cell-based, human; settings: contrast agent 1 mM, 2 mM and 3 mM
Method: (§3) CAPAN2 cells were labeled with USPIO nanoparticles coupled to P88 or with carboxy silane coated iron oxide nanoparticles coupled to P88. USPIO-polyethylene glycol (PEG) were used as negative contrast agent. Labeled cells were visualized by MRI and the concentration of contrast agents bound to the cells was determined by iron dosage.
This confirms the specificity of P88 to the pancreatic beta cells biomarker FXYD2-gamma-a and the efficacy of using the P88 coupled to a contrast agent in MRI.

[8] = system: human Langerhans islets; assay: MRI of human Langerhans islets labeled with contrast agents; assay type: cell-based; settings: for transverse relaxation rates of labeled human Langerhans islets compared to USPIO-PEG: independent from concentration and purity of islets
Method: Contrast agents USPIO and carboxy silane coated iron oxide nanoparticles coupled to the peptide P88 were tested for their interaction with the human Langerhans islets and compared to the use of USPIO-PEG contrast agent.

[9] = system: CAPAN2 cells; assay: MRI of CAPAN2 cells labeled with contrast agents; assay type: cell-based, human; settings: for MRI labeling of CAPAN2 cells: 2×10^6 to 0.1×10^6 cells per 100 μl; for transverse relaxation rates of labeled CAPAN2 cells compared to USPIO-PEG: independent from the concentration of CAPAN2 cells
Method: as §3
CAPAN2 cells were used with different concentrations ranging from 2×10^6 cell per 100 μl to 0.1×10^6 cells per 100 μl corresponding respectively to the beta cell concentration in healthy pancreas and in a pancreas with diabetes. […] The labeling was also clearly observed with the lowest CAPAN2 cell concentration.

[10] = molecular target: FXYD2-gamma-a subunit (target of the phage display screening and Kd determination) (human) (UniProt P54710); assay: phage clone characterisation after M13 phage display screening; method not stated
[11] = molecular target: FXYD2-gamma-a regulatory subunit expressed by CAPAN-2 cells and human pancreatic beta cells (human) (UniProt P54710); assay: immunofluorescence on CAPAN2 cells, ImageJ semi-quantitative analysis, P88 at 10 µM
[12] = molecular target: FXYD2-gamma-a regulatory subunit expressed by CAPAN-2 cells and human pancreatic beta cells (human) (UniProt P54710); assay: immunofluorescence on CAPAN2 cells, ImageJ semi-quantitative analysis, P88 at 5 µM
[13] = molecular target: FXYD2-gamma-a subunit (target of the phage display screening and Kd determination) (human) (UniProt P54710); assay: synthetic peptide; method not stated

FXYD2-gamma-a subunit, sequence (P54710 whole entry, the tested form may be a part): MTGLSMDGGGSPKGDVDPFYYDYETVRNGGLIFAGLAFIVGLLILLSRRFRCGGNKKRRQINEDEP
T1 sequence (P54710 whole entry): as the sequence (P54710 whole entry, the tested form may be a part) above
FXYD2-gamma-a subunit (target of the phage display screening and Kd determination) (human), sequence (P54710 whole entry): as the sequence (P54710 whole entry, the tested form may be a part) above
FXYD2-gamma-a regulatory subunit expressed by CAPAN-2 cells and human pancreatic beta cells (human), sequence (P54710 whole entry): as the sequence (P54710 whole entry, the tested form may be a part) above

In the case of LPLSRHY [P89, LPLSRHY], the “specificity of interaction (brown DAB coloration)” value (from here on “specificity of interaction”) [1] is reported as “less specific compared to P88”.

In the case of LPLSRHYGGGSVPFYSHSNTHHTSM [P88], the “specificity of interaction” value [1] is reported as “more localized in the CAPAN2 cells”, the “RRFL higher than the RRFL produced by the anti-FXYD2-gamma-a polyclonal antibody” value ([2]; CAPAN2 cells, 5 μM) is reported as 791% and the “RRFL higher than the RRFL produced by the anti-FXYD2-gamma-a polyclonal antibody” value ([2]; CAPAN2 cells, 10 μM) is reported as 945%. The “green fluorescence pattern in CAPAN 2 cells” value ([2]; CAPAN2 cells, DAPI nuclear stain) was “correspondent to the blue fluorescent pattern of DAPI”, the “green fluorescence in PANC1 cells” value ([2]; PANC1 cells) was “few green fluorescent spots” and the “co-localization with glucagon (anti-glucagon antibody)” value [3] was “did not co-localize”. The “co-localization with insulin (anti-insulin antibody)” value [3] was “perfect co-localization”, the Kd [4] was 1890 nM and the “marking of pancreatic Langerhans islets” value [5] was “high specific marking”.

With NTHHTSM [P90] the “specificity of interaction” value [1] was “less specific compared to P88” and the “dissociation constant (Kd)” value [4] was “could not be determined”.

With “USPIO-P88: USPIO nanoparticles coupled to P88, MRI contrast agent (LPLSRHYGGGSVPFYSHSNTHHTSM; also: coupled to USPIO nanoparticles, site not given here)” the “co-localization of labeled Langerhans islets with the red fluorescence of insulin” value [6] was “perfectly co-localized”, the “amount of iron captured by the CAPAN2 cells compared to USPIO-PEG” value [7] was “always higher” and the “MRI labeling of human Langerhans islets compared to USPIO-PEG” value ([8]; also at low concentration and in non-pure islet samples) was “clear difference”. The “transverse relaxation rates of labeled human Langerhans islets compared to USPIO-PEG” value [8] was “higher”, the “MRI labeling of CAPAN2 cells” value [9] was “clear labeling” and the “transverse relaxation rates of labeled CAPAN2 cells compared to USPIO-PEG” value [9] was “higher”.

For “silane coated iron oxide nanoparticles-P88: carboxy silane coated iron oxide nanoparticles coupled to P88 (LPLSRHYGGGSVPFYSHSNTHHTSM; also: coupled to carboxy silane coated iron oxide nanoparticles, site not given here)”, the “co-localization of labeled Langerhans islets with the red fluorescence of insulin” value [6] was “perfectly co-localized”, the “amount of iron captured by the CAPAN2 cells compared to USPIO-PEG” value [7] was “always higher” and the “transverse relaxation rates of labeled human Langerhans islets compared to USPIO-PEG” value [8] was “higher”. For the same molecule, the “MRI labeling of CAPAN2 cells” value [9] was “clear labeling” and the “transverse relaxation rates of labeled CAPAN2 cells compared to USPIO-PEG” value [9] was “higher”.

B1: selected M13 phage clone carrying 2 peptides (peptide)
peptide 1: LPLSRHY
peptide 2: NTHHTSM
Work on B1 yielded a Kd [10] of 9.3 nM.

For LPLSRHYGGGSVPFYSHSNTHHTSM (also: biotinylated in ICC/IHC/IF tests, site not given here) [P88], the relative rate of fluorescent labeling (RRFL) in CAPAN2 cells against the anti-FXYD2-gamma-a polyclonal antibody [11] was 945 % higher and the relative rate of fluorescent labeling (RRFL) in CAPAN2 cells against the anti-FXYD2-gamma-a polyclonal antibody [12] was 791 % higher.

With LPLSRHY (also: biotinylated in ICC tests, site not given here) [P89] the Kd [13] was 109000 nM.
